Measured values published in PubChem BioAssay (NCI).
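These data come from cells grown in 96-well plates and exposed to compound for 48 hours at five concentrations. Abbreviation: GI50, concentration required for 50% inhibition of growth. TGI: concentration producing complete growth inhibition.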

What was measured:
Assay in all cases: NCI-60 cell line screen, 48 h
OVCAR-5 ovarian = tested on: OVCAR-5 ovarian
T-47D breast = tested on: T-47D breast
UACC-62 melanoma = tested on: UACC-62 melanoma
SK-MEL-5 melanoma = tested on: SK-MEL-5 melanoma
SK-MEL-2 melanoma = tested on: SK-MEL-2 melanoma
M14 melanoma = tested on: M14 melanoma
HCT-15 colon = tested on: HCT-15 colon
786-0 renal = tested on: 786-0 renal
TK-10 renal = tested on: TK-10 renal
SF-539 CNS = tested on: SF-539 CNS

SMILES: CC[C@]12C=CCN3CC[C@@]4(c5ccc(OC)cc5N(C)[C@H]4[C@@](O)(C(=O)OC)[C@@H]1OC(=O)CCCN1CCN(CCCC(=O)O[C@@H]4[C@]5(CC)C=CCN6CC[C@@]7(c8ccc(OC)cc8N(C)[C@H]7[C@@]4(O)C(=O)OC)[C@@H]65)CC1)[C@@H]32
- GI50 (OVCAR-5 ovarian): 1.82 µM
- TGI (OVCAR-5 ovarian): 3.47 µM
- GI50 (T-47D breast): 1.6 µM
- TGI (T-47D breast): 3.44 µM
- GI50 (UACC-62 melanoma): 1.68 µM
- TGI (UACC-62 melanoma): 3.13 µM
- GI50 (SK-MEL-5 melanoma): 1.48 µM
- TGI (SK-MEL-5 melanoma): 2.83 µM
- GI50 (SK-MEL-2 melanoma): 1.88 µM
- TGI (SK-MEL-2 melanoma): 3.59 µM
- GI50 (M14 melanoma): 1.87 µM
- TGI (M14 melanoma): 3.61 µM
- GI50 (HCT-15 colon): 1.2 µM
- TGI (HCT-15 colon): 2.61 µM
- GI50 (786-0 renal): 1.44 µM
- TGI (786-0 renal): 2.91 µM
- GI50 (TK-10 renal): 1.3 µM
- TGI (TK-10 renal): 2.78 µM
- GI50 (SF-539 CNS): 1.38 µM
- TGI (SF-539 CNS): 2.7 µM

SMILES: O=S(=O)(Nc1ccccc1)c1ccc(C2CC3(Cl)C(Cl)=C(Cl)C2(Cl)C3(Cl)Cl)cc1 (centres undefined)
- GI50 (OVCAR-5 ovarian): 2.36 µM
- TGI (OVCAR-5 ovarian): 5.46 µM
- GI50 (T-47D breast): 2.54 µM
- TGI (T-47D breast): 6.82 µM
- GI50 (UACC-62 melanoma): 1.66 µM
- TGI (UACC-62 melanoma): 3.58 µM
- GI50 (SK-MEL-5 melanoma): 1.93 µM
- TGI (SK-MEL-5 melanoma): 3.74 µM
- GI50 (SK-MEL-2 melanoma): 2.23 µM
- TGI (SK-MEL-2 melanoma): 4.16 µM
- GI50 (M14 melanoma): 2.19 µM
- TGI (M14 melanoma): 4.61 µM
- GI50 (HCT-15 colon): 3.13 µM
- TGI (HCT-15 colon): 10.2 µM
- GI50 (786-0 renal): 2.15 µM
- TGI (786-0 renal): 4.23 µM
- GI50 (TK-10 renal): 4.4 µM
- TGI (TK-10 renal): 14.6 µM
- GI50 (SF-539 CNS): 2.32 µM
- TGI (SF-539 CNS): 5.79 µM

SMILES: CNCc1cccc2c1OCCOCCOCCNS(=O)(=O)c1ccc(cc1)-c1cnc(N)c(n1)C(=O)N2
- GI50 (OVCAR-5 ovarian): 2.72 µM
- TGI (OVCAR-5 ovarian): 6.37 µM
- GI50 (T-47D breast): 2.05 µM
- TGI (T-47D breast): 5.46 µM
- GI50 (UACC-62 melanoma): 1.61 µM
- TGI (UACC-62 melanoma): 2.99 µM
- GI50 (SK-MEL-5 melanoma): 1.69 µM
- TGI (SK-MEL-5 melanoma): 3.29 µM
- GI50 (SK-MEL-2 melanoma): 1.76 µM
- TGI (SK-MEL-2 melanoma): 4.41 µM
- GI50 (M14 melanoma): 1.31 µM
- TGI (M14 melanoma): 2.71 µM
- GI50 (HCT-15 colon): 4.86 µM
- TGI (HCT-15 colon): 18.9 µM
- GI50 (786-0 renal): 1.22 µM
- TGI (786-0 renal): 2.89 µM
- GI50 (TK-10 renal): 1.98 µM
- TGI (TK-10 renal): 8.49 µM
- GI50 (SF-539 CNS): 1.11 µM
- TGI (SF-539 CNS): 2.38 µM

SMILES: COc1ccc(-n2c(=O)c3ccccc3n(Cc3ccc(C(=O)NO)cc3)c2=O)cc1
- GI50 (OVCAR-5 ovarian): 2.34 µM
- TGI (OVCAR-5 ovarian): 7.56 µM
- GI50 (T-47D breast): 1.9 µM
- TGI (T-47D breast): 6.63 µM
- GI50 (UACC-62 melanoma): 1.8 µM
- TGI (UACC-62 melanoma): 4.28 µM
- GI50 (SK-MEL-5 melanoma): 1.73 µM
- TGI (SK-MEL-5 melanoma): 3.45 µM
- GI50 (SK-MEL-2 melanoma): 2.31 µM
- TGI (SK-MEL-2 melanoma): 7.13 µM
- GI50 (M14 melanoma): 1.71 µM
- TGI (M14 melanoma): 3.44 µM
- GI50 (HCT-15 colon): 3.22 µM
- TGI (HCT-15 colon): 16.2 µM
- GI50 (786-0 renal): 2.53 µM
- TGI (786-0 renal): 7.09 µM
- GI50 (TK-10 renal): 2.33 µM
- TGI (TK-10 renal): 12.9 µM
- GI50 (SF-539 CNS): 1.93 µM
- TGI (SF-539 CNS): 5.25 µM

SMILES: CC(=O)O[C@H]([C@H](OC(C)=O)[C@H](C)OC(C)=O)[C@@H](/C=C/[C@H]1CC=CC(=O)O1)OC(C)=O
- GI50 (OVCAR-5 ovarian): > 100 µM
- TGI (OVCAR-5 ovarian): > 100 µM
- GI50 (T-47D breast): 38.3 µM
- TGI (T-47D breast): > 100 µM
- GI50 (UACC-62 melanoma): > 100 µM
- TGI (UACC-62 melanoma): > 100 µM
- GI50 (SK-MEL-5 melanoma): 33.2 µM
- TGI (SK-MEL-5 melanoma): > 100 µM
- GI50 (SK-MEL-2 melanoma): 36.4 µM
- TGI (SK-MEL-2 melanoma): > 100 µM
- GI50 (M14 melanoma): 67.3 µM
- TGI (M14 melanoma): > 100 µM
- GI50 (HCT-15 colon): 44.9 µM
- TGI (HCT-15 colon): > 100 µM
- GI50 (786-0 renal): 97.3 µM
- TGI (786-0 renal): > 100 µM
- GI50 (TK-10 renal): > 100 µM
- TGI (TK-10 renal): > 100 µM
- GI50 (SF-539 CNS): 37.2 µM
- TGI (SF-539 CNS): > 100 µM

SMILES: Cn1cc(-c2ccc3c(c2)ncn3-c2cc(NS(=O)(=O)C3CC3)cc(-c3ccc(F)cc3F)c2)cn1
- GI50 (OVCAR-5 ovarian): 14 µM
- TGI (OVCAR-5 ovarian): > 100 µM
- GI50 (T-47D breast): 7.39 µM
- TGI (T-47D breast): 62.8 µM
- GI50 (UACC-62 melanoma): 25.5 µM
- TGI (UACC-62 melanoma): 73.1 µM
- GI50 (SK-MEL-5 melanoma): 13.1 µM
- TGI (SK-MEL-5 melanoma): 32 µM
- GI50 (SK-MEL-2 melanoma): 25.7 µM
- TGI (SK-MEL-2 melanoma): 61.5 µM
- GI50 (M14 melanoma): 14.9 µM
- TGI (M14 melanoma): > 100 µM
- GI50 (HCT-15 colon): 7.4 µM
- TGI (HCT-15 colon): > 100 µM
- GI50 (786-0 renal): 6.05 µM
- TGI (786-0 renal): > 100 µM
- GI50 (TK-10 renal): 2.73 µM
- TGI (TK-10 renal): 72.7 µM
- GI50 (SF-539 CNS): 1.37 µM
- TGI (SF-539 CNS): 12.7 µM

SMILES: COc1cc(/C=C/C(=O)c2nc3cc(F)ccc3nc2C)cc(OC)c1OC
- GI50 (OVCAR-5 ovarian): > 100 µM
- TGI (OVCAR-5 ovarian): > 100 µM
- GI50 (T-47D breast): 4.91 µM
- TGI (T-47D breast): > 100 µM
- GI50 (UACC-62 melanoma): 5.57 µM
- TGI (UACC-62 melanoma): > 100 µM
- GI50 (SK-MEL-5 melanoma): 5.04 µM
- TGI (SK-MEL-5 melanoma): > 100 µM
- GI50 (SK-MEL-2 melanoma): 34.5 µM
- TGI (SK-MEL-2 melanoma): > 100 µM
- GI50 (M14 melanoma): > 43.2 µM
- TGI (M14 melanoma): > 100 µM
- GI50 (HCT-15 colon): 2.94 µM
- TGI (HCT-15 colon): > 100 µM
- GI50 (786-0 renal): > 23.2 µM
- TGI (786-0 renal): > 100 µM
- GI50 (TK-10 renal): > 100 µM
- TGI (TK-10 renal): > 100 µM
- GI50 (SF-539 CNS): > 100 µM
- TGI (SF-539 CNS): > 100 µM

SMILES: CN(c1ccccc1)c1c2ccccc2nc2[nH]c3ccccc3c12
- GI50 (OVCAR-5 ovarian): 12.6 µM
- TGI (OVCAR-5 ovarian): 39.5 µM
- GI50 (T-47D breast): 3.84 µM
- TGI (T-47D breast): 32.6 µM
- GI50 (UACC-62 melanoma): 1.5 µM
- TGI (UACC-62 melanoma): 4.21 µM
- GI50 (SK-MEL-5 melanoma): 1.62 µM
- TGI (SK-MEL-5 melanoma): 3.56 µM
- GI50 (SK-MEL-2 melanoma): 7.71 µM
- GI50 (M14 melanoma): 2.21 µM
- TGI (M14 melanoma): 4.43 µM
- GI50 (HCT-15 colon): 2.73 µM
- TGI (HCT-15 colon): > 31.9 µM
- GI50 (786-0 renal): 1.76 µM
- TGI (786-0 renal): 4.33 µM
- GI50 (TK-10 renal): 1.26 µM
- TGI (TK-10 renal): 3.5 µM
- GI50 (SF-539 CNS): 1.91 µM
- TGI (SF-539 CNS): 4.59 µM
